Assay results: patent US20250250308A1, “METHODS AND COMPOSITIONS WITH ANTIFUNGAL ACTIVITY” (priority 2022, published 2025)
Several values for one entry are separate records, joined by “and”; a condition that tells them apart may be missing. Equal values may be shown once. Entries after “also recorded” stand apart in the source; their conditions may differ.

Key:
[1] = test system: C. albicans; assay: Mouse OPC (oropharyngeal candidiasis) model; type: in vivo
Procedure: Mouse OPC model. The efficacy of EntV fragments were tested in the OPC model as described (Graham et al., 2017; Solis and Filler, 2012). Mice were immunosuppressed by injecting 225 mg/kg cortisone acetate subcutaneously 1 d before inoculation, and subsequently on days 1 and 3 of the infection. Group size was 6-8. To prepare the inoculum, 1 ml of C. albicans (SC5314) overnight culture grown at 30° C. in YPD broth was washed twice in PBS before resuspension in sterile Hanks' balanced salt solution (HBSS) at a concentration of 1×10^6 cells/mL. Calcium alginate swabs were soaked in this inoculum for 5 minutes prior to inoculation. Mice were anesthetized using ketamine and xylazine and placed on pre-warmed isothermal pads and the swabs were placed sublingually for 75 min. Mice were given additional doses of ketamine (50 mg/kg), as necessary. After inoculation, mice were given drinking water with EntV fragments or DMSO (0.01%) in the drinking water ad libitum. Mice were euthanized at 5 d after inoculation, unless noted. The tongues were excised and cut in half laterally for tissue histology and assessment of fungal burden.
For tissue histology the tongue sample was placed in 10% zinc-buffered formalin overnight and stored in 80% ethanol, before embedding in paraffin. For each tongue, 5 μm sections were prepared using a Leica microtome and stained using Periodic Acid-Schiff (PAS) stain. Epithelial invasion was measured from 40× images taken of the entire tissue section of each tongue half with the total area of epithelium and infected epithelium were measured using ImageJ (version 1.6). Measurements were totaled and expressed as a percentage of total infected epithelium relative to the entire epithelial area (Graham et al., 2017; Moyes et al., 2016).
For examination of fungal burden, qPCR was used by amplifying a 269-bp fragment of the internal transcribed spacer 2 (ITS2) between the 5.8S and 28S ribosomal RNA genes of C. albicans (Graham et al., 2017; Khot et al., 2009). DNA was extracted from homogenized tongue tissue using the Yeast DNA Extraction Kit (Thermo Scientific) according to the protocol with minor modifications. The ITS2 fragment was amplified by qPCR was performed with a CFX96 Real-Time System with a C1000 Touch thermal cycler (BioRad). C. albicans gDNA was quantified using FastStart Universal SYBR Green master mix with ROX (Roche). To screen for contamination and background fluorescence during the qPCR amplification, no template controls were used.

[2] = test system: Lactobacillus sakei ATCC 15521; assay: Lactobacillus MIC assay (growth in liquid culture); type: cell-based
Procedure: FIG. 8: EntV fragments have no inhibitory activity against Lactobacillus sakei. L. sakei was cultured in Lactobacilli MRS broth overnight and diluted 1/10 into fresh medium to which EntV and EntV fragments were added at various concentrations. After 24 hours of growth at 30° C., the OD625 readings were taken.
Lactobacillus MIC Assay. For this assay, Lactobacillus sakei ATCC 15521 (Torriani et al., 1996) was used following the methodology as described with a few modifications (Chang et al., 2011). Briefly L. sakei was grown in Lactobacilli MRS broth (Difco, Detroit, MI, USA) for 18 h at 30° C. without agitation (Malheiros et al., 2015). Following adjustment to a concentration of 1×10^6 cells/ml, cells were diluted 1:10 into fresh MRS medium containing the indicated concentrations of EntV fragments. After 24 hours of growth at 30° C. without agitation, OD625 readings were taken using a BioTek Cytation5 plate reader. Readings of blanks (containing fresh MRS medium) were subtracted from sample wells. Three technical replicates were averaged, and the experiment was repeated three times.

[3] = test system: C. albicans; assay: Killing of C. elegans by C. albicans (survival of infected nematodes); type: in vivo; settings: for Median survival: C. albicans infected C. elegans exposed to 1 nM peptide, one value per trial
Procedure: The α7 helix is sufficient to protect C. elegans and inhibit surface adhesion. Based on this structural characterization, fragments of EntV were examined to identify those structural moieties that retained antifungal activity. Synthetic peptides were generated of each of the four alpha helices (plus two flanking amino acids) from the active C-terminus of EntV—α4, α5, α6 and α7 (FIG. 1A) as well as an α4-α6 construct. The peptides were tested for their ability to protect C. elegans against C. albicans infection as established in previous work (Cruz et al., 2013; Graham et al., 2017).
Killing of C. elegans by C. albicans. The methodology used for the C. elegans infection assays was performed, with a few modifications, as described ((Breger et al., 2007; Cruz et al., 2013; Graham et al., 2017; Peleg et al., 2008)). Briefly, C. elegans glp-4(bn2); sek-1(km-4) (Breger et al., 2007) nematodes were propagated and maintained on E. coli strain OP50(Brenner, 1974) that was seeded onto nematode growth medium (NGM) agar using standard techniques (Hope, 1999). To synchronize the animals, L1 stage worms on non-starved plates were washed off, filtered through a 10 μm filter (pluriSelect, pluriStrainer 10 μm), harvested by centrifugation, transferred to OP50 seeded plates, and grown to the L4 stage. To prepare the infection plates, C. albicans strain […] (Gillum et al., 1984) was grown in YPD broth for 24 h at 37° C. with agitation. 500 μl of the culture was plated onto BHI solid medium containing gentamycin (10 μg/ml) and grown for 24 h at 37° C. The synchronized, L4 C. elegans were washed off the OP50 plates in 2 ml sterile M9 buffer and washed once, centrifuging at 750×g for 30 seconds to collect animals. Animals were infected by placing them on the SC5314 lawn for 4 h at 25° C. Following this exposure, they were washed off the plate and washed four times with 2 ml of sterile M9. The nematodes were then pipetted (˜30 per well with 2 wells per condition for a total of ˜60 worms assayed) into six-well plates with 2 ml of liquid medium (20% BHI broth and 80% M9) containing the indicated concentrations of test compounds. Plates were incubated at 25° C., and worm death was scored daily. Kaplan-Meier survival curves were generated and analyzed as described in the quantification and statistical analysis section.

[4] = 10 nM and 1 nM in drinking water
[5] = 100 nM in drinking water for 5 days following inoculation
[6] = 100 nM starting at day three, sacrificed on day five

Molecule | Epithelial invasion [1, 4] | Fungal burden on the tongue [1, 4] | Fungal burden ([1]; 50 nM in drinking water) | Hyphal invasion ([1]; 50 nM in drinking water) | Hyphal invasion relative to fluconazole ([1]; 100 nM and 500 nM vs. 4 μg/mL fluconazole) | Fungal burden in the tongue (C. albicans DNA by qPCR) [1, 5] | Hyphal (epithelial) invasion of the tongue ([1]; 100 nM in drinking water for 5 days following inoculation, listed as 12-mer) | Fungal burden, treatment of established infection [1, 6] | Hyphal invasion, treatment of established infection [1, 6] | Fungal burden relative to fluconazole ([1]; 100 nM vs. 4 μg/mL fluconazole, day 5) | Antibacterial (bacteriocin) activity against L. sakei ([2]; various concentrations, 24 hours) | Protection of C. elegans from C. albicans infection (survival) ([3]; 1 nM peptide) | Median survival [3] | Lowest concentration abrogating growth of L. sakei ([2]; liquid culture, 24 hours at 30° C., OD625)
VAGQLALWAVQC [12aa] | the reduction in invasion remains dramatic | only a slight reduction in fungal burden on the tongue | loss of efficacy in terms of fungal burden | still a significant lowering of hyphal invasion | slightly less prevalent | equally effective | at least as effective as the full length EntV; also recorded: most reduced | significantly less fungal burden compared to both groups of untreated animals | The same patterns were observed | even more effective at reducing fungal burden than 4 μg/mL fluconazole | no longer had bacteriocin activity | as effective in protecting against C. albicans infection in the worm model and inhibiting surface adhesion as full-length EntV | 11 days and 10 days and 12 days and 10.5 days and 9.5 days | –
EntV: 68 amino acid active C-terminal form of the E. faecalis bacteriocin EntV (SEQ ID NO: 14) (protein, listed as Enterococcus faecalis) LGSCVANKIKDEFFAMISISAIVKAAQKKAWKELAVTVLRFAKANGLKTNAIIVAGQLALWAVQCGLS | – | – | – | – | – | significantly reduced the fungal burden | – | – | – | – | – | – | 11 days and 10.5 days and 13 days and 12 days and 10 days and 9.5 days and 9 days | ≤ 10 nM
